The conditions of assay [1]: versus 2% sugar solution, cited from earlier work.
Assay [2] can be described thus: Brazzein sweetness activity by ascending taste test with a trained human panel. It counts as in vivo, humans. Particulars: threshold concentration at which sweetness is first felt, 500 μl samples tasted from low to high concentration. The method, then: Since brazzein is a protein rather than a sugar, it is not possible to measure sweetness using a saccharimeter. Therefore, the activity was measured using a taste test that measures the activity of brazzein by allowing humans to directly taste brazzein. First, brazzein was dissolved in distilled water such that the final concentration was 1.0 mg/mL, samples were prepared by varying the test concentration so as to be 30 to 0.05 ng/mL, a threshold value for feeling the sweetness for the first time was obtained by tasting the sweetness of the solution, […] The specific activity measurement method was performed as follows.
A panel of a total of 20 males and 10 females trained in the sweetness test was configured. Prior to the activity measurement, the subjects were informed of the test date and time in advance to sample the taste in their best conditions, and were prohibited from drinking alcohol on the day before the test and eating food, smoking, and the like immediately before the test. The subjects trained in advance rinsed their mouths with prepared secondary distilled water and obtained the concentration at which the sweetness was first felt while sampling the taste of 500 μl of each sample according to the concentration of each type in the order of low concentration to high concentration. […]

No end group written: not given here.

For “Brazzein: natural sweet protein of 54 amino acid residues, 6.5 kDa, from the fruit of Pentadiplandra brazzeana Baillon (QDKCKKVYENYPVSKCQLANQCNYDCKLDKHARSGECFYDEKRNLQCICDYCEY; UniProt P56552 1-54, looked up)”, in assay [1] (molar basis), the “sweetness relative to a 2% sugar solution, on a molar basis” value was ~9500 fold. In assay [1] (molecular weight basis), the “sweetness relative to a 2% sugar solution, on a molecular weight basis” value is given as “about 2000 fold”.
As for “K. lactis wild-type brazzein: wild-type brazzein expressed in K. lactis, used as the sweetness comparison (QDKCKKVYENYPVSKCQLANQCNYDCKLDKHARSGECFYDEKRNLQCICDYCEY; ends and bridges not checked; cysteine pairing not given here; UniProt P56552 1-54, looked up) [reference compound]”, the “sweetness activity relative to the same mass of sucrose” value in assay [2] is 2,309 (±6.8%) fold.
Still for that read-out and setting: in the case of “S. cerevisiae wild-type brazzein: wild-type brazzein (SEQ ID NO: 3) secreted and expressed in Saccharomyces cerevisiae with the pESC-Brazzein vector (DKCKKVYENYPVSKCQLANQCNYDCKLDKHARSGECFYDEKRNLQCICDYCEY)” it was “about 2,260 (±5.9%) fold”.
